Measurements as given in paper PMC12990037, “Discovery of Two Structurally Distinct Classes of Inhibitors Targeting the Nuclease MUS81 and Enhancing Efficacy of Chemotherapy in Cancer Cells” (Journal of Medicinal Chemistry, 2026).

What was measured:
MUS81 = tested on: MUS81; set-up: method as in PMID 37352577; conditions: FRET-based DNA cleavage assay; cited from earlier work
U2OS, HEK293, and CAL51 = experiment: Cell proliferation assay (CyQUANT), combination with cisplatin; type: cell-based; conditions: cisplatin alone, 5 days
Procedure: 7 MUS81 inhibitors synergize with cisplatin to reduce cancer cell viability. (A,B) U2OS cells were treated with DMSO, MU262, or MU876 at the indicated concentrations in combination with a range of cisplatin (0–5 μM) for 96–120 h. Cell viability was assessed by the Cy-Quant assay. The survival was normalized to the DMSO-treated control. Graphs were generated in Graphpad Prism using the nonlinear regression fitting model. n ≥ 3, error bars represent s.d. (C) CAL51 WT cells were treated with DMSO, MU262, or MU876 at the indicated concentrations at each passage over 2 weeks. Cisplatin (12 μM) was added for the last 24 h before harvest. DNA damage was assessed by quantifying γH2AX foci using fluorescence microscopy and CellProfiller software. Data were visualized plotted in R software. Red markers represent the median of γH2AX foci number per nucleus; blue markers represent the percentage of cells with ≥20 γH2AX foci per nucleus. n = 3, error bars represent s.d.; ****p <0.0001 (unpaired, two-tailed t-test). TEXT PRINTED IN THE PICTURE: (C) D: γH2AX foci: 2.4 (DMSO); γH2AX foci: 59.6 (Cisplatin) | (C) MU262: γH2AX foci: 2.3 (1 μM; DMSO); γH2AX foci: 3 (2 μM; DMSO); γH2AX foci: 55.4 (1 μM; Cisplatin); γH2AX foci: 43.2 (2 μM; Cisplatin) | (C) MU876: γH2AX foci: 2.8 (0.25 μM; DMSO); γH2AX foci: 0.9 (0.5 μM; DMSO); γH2AX foci: 48.2 (0.25 μM; Cisplatin); γH2AX foci: 42.6 (0.5 μM; Cisplatin) DOUBTS OF THE COPYIST ABOUT THIS PICTURE: Panel C: the numbers in the blue markers have no measure or unit of their own printed in the picture; the axis title 'γH2AX foci' is given as the measure, but the numbers may stand for another quantity. / Panel C: 'D' is a control column with no concentration; it may not count as a substance. / Panel C: small white print on blue markers; 59.6, 55.4, 48.2, 43.2, 42.6, 2.8 and 0.9 are best readings (3, 5, 6, 8 and 9 are hard to tell apart).
CAL51 WT, CAL51 MUS81^–/–, U2OS, and HEK293 cells were seeded in a 96-well plate and treated with the respective concentration of selected inhibitors. […]

For O=C(N/N=C/c1cc(O)c(O)cc1O)c1cc2ccccc2cc1O [Dyngo-4a], the IC50 (MUS81) is listed as 0.57 µM.

For N.N.[Cl][Pt][Cl] [cisplatin, reference compound], the cell viability (U2OS, HEK293, and CAL51) was “dose-dependent decrease of viability”.
